Results as given in patent US20260083851A1 (AVILAR THERAPEUTICS, INC., priority 2022, published 2026).
Read-outs that look alike come from different tables or passages of the source. Starred links: 1 amine or outer side, 2 acyl side, 3 side chain; linkers in the order of their positions; H or OH if unused. Positions of bridges follow the written chain, without caps; N, C: chain ends. Non-standard residues stand in square brackets, D forms with d. Residues, ends and D or L forms follow the SMILES beside them. ξ: configuration not given here. *: point of attachment. X1 = O=C(CCOCC(COCCC(=O)NCCOCCOCCOCCOCC1OCC(Nc2cncc(C(F)(F)F)n2)C(O)C1O)NCC(=O)*)NCCOCCOCCOCCOCC1OCC(Nc2cncc(C(F)(F)F)n2)C(O)C1O; ξPro(4ξ-NH2) = O=C(C1CC(N[*:3])CN1[*:1])[*:2]

Key:
IgG = IgG SPR binding; conditions: second table, read-out: IgG KD
HepG2 cells = assay: Cellular uptake assay (high-content imaging); type: cell-based, human; conditions: 100 nM AF488-labeled antibody, 6 hours at 37° C., the 25th table, read-out: Uptake EC50
Source text: The cellular uptake assay is designed to measure compound-mediated cellular uptake of fluorescently labeled antibody following ternary complex formation with the ASGPR receptor and endocytosis of the entire complex into cells. The optimal concentration of compound will result in the maximum number of cells with intracellular antibody and is represented as the peak ratio of antibody-positive cells over the total number of cells. As with the ternary complex formation assay, too much or too little compound will result in suboptimal complex formation and fewer cells will have measurable intracellular fluorescence.
Human IgG (Sigma-Aldrich, 14506) was covalently labeled with Alexa Fluor 488 using the Alexa Fluor™ 488 Protein Labeling Kit (Thermo Fisher, A10235) following the manufacturer's instructions. HepG2 cells were plated in DMEM supplemented with 10% FBS at 5,000 cells per well in a 96-well microtiter plate and incubated for approximately 18 hours at 37° C./5% CO2. For studies using human IgG, 100 nM AF488-labeled human IgG antibodies and serial dilutions of IgG-based degrader (0.1% DMSO final concentration) were added to the cells and the mixture was incubated at 37° C. for 6 hours. For studies using DNP, 100 nM AF488-labeled DNP antibodies and serial dilutions of DNP-based degrader (0.1% DMSO final concentration) were added to the cells and the mixture was incubated at 37° C. for 6 hours. HepG2 cells were fixed in 100% methanol at −20° C. for 20 min, washed 3× with PBS, then stained with DAPI (Thermo, Cat #H3570). HepG2 cells were imaged for DAPI and Alexa Fluor 488 using the Operetta CLS, high-content analysis system (PerkinElmer). Data is presented as the ratio of the number of cells positive for hIgG or DNP (AF-488 fluorescence) over the total cell number (measured by DAPI).

[1] = target: T1, ASGPR receptor on HepG2 cells (ternary complex with AF488-labeled antibody) (Homo sapiens, UniProt P07306); assay: Ternary complex formation assay (flow cytometry, cell-associated AF488 fluorescence); type: cell-based
T1 construct: host or cells: HepG2
T1 sequence (P07306 1-291): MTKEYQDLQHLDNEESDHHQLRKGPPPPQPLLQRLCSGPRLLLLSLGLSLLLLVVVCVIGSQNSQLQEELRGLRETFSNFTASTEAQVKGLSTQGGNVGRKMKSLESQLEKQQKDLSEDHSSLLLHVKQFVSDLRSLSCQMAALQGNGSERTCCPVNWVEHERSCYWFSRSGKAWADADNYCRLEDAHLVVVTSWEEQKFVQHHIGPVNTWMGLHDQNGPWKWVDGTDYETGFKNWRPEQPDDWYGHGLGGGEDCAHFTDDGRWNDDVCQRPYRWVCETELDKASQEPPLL
T1 sequence (P07307 1-311 partner): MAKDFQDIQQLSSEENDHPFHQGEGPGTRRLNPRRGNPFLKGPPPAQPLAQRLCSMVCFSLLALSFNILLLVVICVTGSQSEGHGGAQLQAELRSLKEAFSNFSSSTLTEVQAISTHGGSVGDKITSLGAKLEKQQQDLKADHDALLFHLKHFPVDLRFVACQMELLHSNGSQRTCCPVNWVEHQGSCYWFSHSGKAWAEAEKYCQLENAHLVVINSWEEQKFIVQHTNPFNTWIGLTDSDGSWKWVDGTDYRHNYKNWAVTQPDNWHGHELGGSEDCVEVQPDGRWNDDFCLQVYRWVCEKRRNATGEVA
Procedure: Human IgG (Sigma-Aldrich, 14506) was covalently labeled with Alexa Fluor 488 using the Alexa Fluor™ 488 Protein Labeling Kit (Thermo Fisher, A10235) following the manufacturer's instructions. HepG2 cells (ATCC, HB-8065) were cultured to about 70% confluence and harvested by trypsinization. Single cell suspensions of HepG2 cells were plated in 96 well plates at 1×10^5 cells/well in cell culture media (DMEM supplemented with 10% FBS) and placed at 4° C. For studies using human IgG, cells were incubated with 100 nM AF488-labeled anti-human IgG and serial dilutions of IgG-based degrader for 1 hour at 4° C. For studies using DNP, cells were incubated with 100 nM AF488-labeled polyclonal rabbit anti-dinitrophenyl (DNP) antibodies (ThermoFisher) and serial dilutions of DNP-based degrader for 1 hour at 4° C. After washing once with ice-cold PBS containing 0.1% BSA and 0.1% sodium azide, cells were resuspended in 150 uL PBS+0.1% BSA and cell-associated AF488 fluorescence was measured by flow cytometry using the iQue® Screener PLUS Flow Cytometer (IntelliCyt). […]

ASGPR = target: T2, ASGPR (Homo sapiens, UniProt P07306); assay: ASGPR SPR binding
T2 construct: biotin (biotinylated)
T2 sequence (P07306 1-291): T1 sequence (P07306 1-291)

[2] = read-out: TCF EC50, 100 nM AF488-labeled antibody, 1 hour at 4° C., the 25th table, class symbols
[3] = read-out: ASGPR KD, second table
[4] = 100 nM AF488-labeled antibody, 1 hour at 4° C., the 25th table, class symbols, read-out: TCF EC50
[5] = second table, read-out: ASGPR KD

CC(C)C[C@@H]1NC(=O)[C@H](Cc2cnc[nH]2)NC(=O)[C@H](Cc2c[nH]c3ccccc23)NC(=O)[C@H](C)NC(=O)[C@@H]2CSSC[C@H](NC(=O)[C@H](Cc3c[nH]c4ccccc34)NC(=O)[C@H](C(C)C)NC(=O)[C@H](CC(C)C)NC(=O)[C@H](CCC(=O)O)NC(=O)CNC1=O)C(=O)N[C@@H]([C@@H](C)O)C(=O)N1CCC[C@@H]1C(=O)N1C[C@@H](NC(=O)c3ccc4c(c3)C(=O)c3cc(C(=O)NC[C@H]5OC[C@H](Nc6cncc(C(F)(F)F)n6)[C@@H](O)[C@H]5O)ccc3-4)C[C@H]1C(=O)N[C@@H](CC(=O)O)C(=O)N2 [compound 40]
Kd (IgG): < 100 nM
EC50 (HepG2 cells; Homo sapiens, class symbols): 100 to 500 nM

CC(C)CC1NC(=O)C(C)NC(=O)CNC(=O)C(CC(C)C)NC(=O)C(Cc2cnc[nH]2)NC(=O)C(Cc2c[nH]c3ccccc23)NC(=O)C(C)NC(=O)C2CSSCC(NC(=O)C(Cc3c[nH]c4ccccc34)NC(=O)C(C(C)C)NC1=O)C(=O)NC(C(C)O)C(=O)N1CCCC1C(=O)N1CC(NC(=O)CNC(COCCC(=O)NCCOCCOCCOCCOCC3OCC(Nc4cncc(C(F)(F)F)n4)C(O)C3O)COCCC(=O)NCCOCCOCCOCCOCC3OCC(Nc4cncc(C(F)(F)F)n4)C(O)C3O)CC1C(=O)NC(CC(N)=O)C(=O)N2 (stereo not drawn) [compound 74] (cyclo(GALVWCTP[ξPro(4ξ-NH2)](X1)NCAWHL); disulfide 6-11; configuration not given here)
EC50 [1, 2]: < 100 nM
Kd (IgG): < 100 nM
Kd (ASGPR; [3]): < 100 nM

CC(C)CC1NC(=O)C(Cc2cnc[nH]2)NC(=O)C(Cc2c[nH]c3ccccc23)NC(=O)C(C)NC(=O)C2CSSCC(NC(=O)C(Cc3c[nH]c4ccccc34)NC(=O)C(C(C)C)NC(=O)C(CC(C)C)NC(=O)C(CCC(=O)O)NC(=O)CNC1=O)C(=O)NC(C(C)O)C(=O)N1CCCC1C(=O)N1CC(NC(=O)CCCc3cn(CCCCCC(=O)NC(COCCC(=O)NCCOCC4OCC(Nc5nccc(C(F)(F)F)n5)C(O)C4O)COCCC(=O)NCCOCC4OCC(Nc5nccc(C(F)(F)F)n5)C(O)C4O)nn3)CC1C(=O)NC(CC(=O)O)C(=O)N2 (stereo not drawn) [compound 76]
EC50 [1, 4]: < 100 nM
Kd (IgG): < 100 nM
Kd (ASGPR; [5]): < 100 nM

CC(C)CC1NC(=O)C(Cc2cnc[nH]2)NC(=O)C(Cc2c[nH]c3ccccc23)NC(=O)C(C)NC(=O)C2CSSCC(NC(=O)C(Cc3c[nH]c4ccccc34)NC(=O)C(C(C)C)NC(=O)C(CC(C)C)NC(=O)C(CCC(=O)O)NC(=O)CNC1=O)C(=O)NC(C(C)O)C(=O)N1CCCC1C(=O)N1CC(NC(=O)CCCc3cn(CC4OCC(Nc5cncc(C(F)(F)F)n5)C(O)C4O)nn3)CC1C(=O)NC(CC(=O)O)C(=O)N2 (stereo not drawn) [compound 78]
EC50 [1, 2]: < 100 nM
Kd (IgG): < 100 nM
Kd (ASGPR; [5]): < 100 nM

COC1O[C@H](Cn2cc(CCCC(=O)N[C@H]3C[C@H]4C(=O)N[C@@H](CC(=O)O)C(=O)N[C@H]5CSSC[C@H](NC(=O)[C@H](Cc6c[nH]c7ccccc67)NC(=O)[C@H](C(C)C)NC(=O)[C@H](CC(C)C)NC(=O)[C@H](CCC(=O)O)NC(=O)CNC(=O)[C@H](CC(C)C)NC(=O)[C@H](Cc6cnc[nH]6)NC(=O)[C@H](Cc6c[nH]c7ccccc67)NC(=O)[C@H](C)NC5=O)C(=O)N[C@@H]([C@@H](C)O)C(=O)N5CCC[C@@H]5C(=O)N4C3)nn2)[C@H](O)[C@H](O)[C@H]1NC(C)=O (stereo partly drawn) [compound 80]
EC50 ([1]; 100 nM AF488-labeled antibody, 1 hour at 4° C., the 25th table, numeric bounds, nM from footnote, read-out: TCF EC50): > 4360 nM
EC50 (HepG2 cells; Homo sapiens, numeric bounds, nM from footnote): > 10000 nM

CC(C)CC1NC(=O)C(Cc2cnc[nH]2)NC(=O)C(Cc2c[nH]c3ccccc23)NC(=O)C(C)NC(=O)C2CSSCC(NC(=O)C(Cc3c[nH]c4ccccc34)NC(=O)C(C(C)C)NC(=O)C(CC(C)C)NC(=O)C(CCC(=O)O)NC(=O)CNC1=O)C(=O)NC(C(C)O)C(=O)N1CCCC1C(=O)N1CC(NC(=O)CCOCCOCCOCCOCCNC(=O)CCCc3cn(CCCCCC(=O)NC(COCCC(=O)NCCOCCOCCOCCOCC4OCC(Nc5cncc(C(F)(F)F)n5)C(O)C4O)COCCC(=O)NCCOCCOCCOCCOCC4OCC(Nc5cncc(C(F)(F)F)n5)C(O)C4O)nn3)CC1C(=O)NC(CC(=O)O)C(=O)N2 (stereo not drawn) [compound 82]
EC50 [1, 4]: < 100 nM
Kd (IgG): < 100 nM
Kd (ASGPR; [5]): < 100 nM

CC(C)C[C@@H]1NC(=O)[C@H](Cc2cnc[nH]2)NC(=O)[C@H](Cc2c[nH]c3ccccc23)NC(=O)[C@H](C)NC(=O)[C@@H]2CSSC[C@H](NC(=O)[C@H](Cc3c[nH]c4ccccc34)NC(=O)[C@H](C(C)C)NC(=O)[C@H](CC(C)C)NC(=O)[C@H](CCC(=O)O)NC(=O)CNC1=O)C(=O)N[C@@H]([C@@H](C)O)C(=O)N1CCC[C@@H]1C(=O)N1C[C@@H](NC(=O)CCOCCOCCOCCOCCNC(=O)CCCc3cn(CCCCCC(=O)NC(COCCC(=O)NCCO[C@@H]4O[C@H](CO)[C@H](O)[C@H](O)[C@H]4Nc4cncc(C(F)(F)F)n4)COCCC(=O)NCCO[C@@H]4O[C@H](CO)[C@H](O)[C@H](O)[C@H]4Nc4cncc(C(F)(F)F)n4)nn3)C[C@H]1C(=O)N[C@@H](CC(=O)O)C(=O)N2 [compound 84]
EC50 [1, 4]: < 100 nM
EC50 (HepG2 cells; class symbols): < 100 nM

CC(=O)NC1C(OCCOCCOCCOCCNC(=O)CCOCC(COCCC(=O)NCCOCCOCCOCCOC2OC(CO)C(O)C(O)C2NC(C)=O)(COCCC(=O)NCCOCCOCCOCCOC2OC(CO)C(O)C(O)C2NC(C)=O)NC(=O)CCCCCn2cc(CCCC(=O)NCCOCCOCCOCCOCCC(=O)NC3CC4C(=O)NC(CC(=O)O)C(=O)NC5CSSCC(NC(=O)C(Cc6c[nH]c7ccccc67)NC(=O)C(C(C)C)NC(=O)C(CC(C)C)NC(=O)C(CCC(=O)O)NC(=O)CNC(=O)C(CC(C)C)NC(=O)C(Cc6cnc[nH]6)NC(=O)C(Cc6c[nH]c7ccccc67)NC(=O)C(C)NC5=O)C(=O)NC(C(C)O)C(=O)N5CCCC5C(=O)N4C3)nn2)OC(CO)C(O)C1O (stereo not drawn) [compound 87]
EC50 [1, 2]: > 1000 nM
Kd (IgG): < 100 nM
Kd (ASGPR; [3]): > 1000 nM

CC(C)CC1NC(=O)C(Cc2cnc[nH]2)NC(=O)C(Cc2c[nH]c3ccccc23)NC(=O)C(C)NC(=O)C2CSSCC(NC(=O)C(Cc3c[nH]c4ccccc34)NC(=O)C(C(C)C)NC(=O)C(CC(C)C)NC(=O)C(CCC(=O)O)NC(=O)CNC1=O)C(=O)NC(C(C)O)C(=O)N1CCCC1C(=O)N1CC(NC(=O)CCOCCOCCOCCOCCNC(=O)CCCc3cn(CCCCCC(=O)NC(COCCC(=O)NCCOCCOCCOCCOCC4OCC(Nc5nccc(C(F)(F)F)n5)C(O)C4O)(COCCC(=O)NCCOCCOCCOCCOCC4OCC(Nc5nccc(C(F)(F)F)n5)C(O)C4O)COCCC(=O)NCCOCCOCCOCCOCC4OCC(Nc5nccc(C(F)(F)F)n5)C(O)C4O)nn3)CC1C(=O)NC(CC(=O)O)C(=O)N2 (stereo not drawn) [compound 88]
EC50 [1, 4]: < 100 nM
Kd (IgG): < 100 nM
Kd (ASGPR; [5]): < 100 nM
